Usually EC50 stands for the concentration needed to bring the measured effect to its halfway point. In general, half-life refers to how long it takes for the measured level to halve. Higher therefore signals slow loss.

From PMC9014857 (ACS Medicinal Chemistry Letters, 2022) come the findings set out here.

One series has as its system VEEV TC83. Put plainly: microbe, parasite or virus in culture. It counts as cell-based. The note with it: Venezuelan equine encephalitis virus, read-out: CPE EC50 (VEEV TC83).
For series [1], the system named is VEEV INH9813. Put plainly: microbe, parasite or virus in culture. The note with it: Venezuelan equine encephalitis virus, Vero 76, read-out: CPE EC50, VEEV and EEEV.
The nature of the next series: Mouse plasma stability. The conditions noted are these: CD-1, mouse.
A further series deals with EEEV V105. Put plainly: microbe, parasite or virus in culture. The conditions noted are these: for EC50: Eastern equine encephalitis virus, Vero 76, 48 h, read-out: EEEV V105 CPE EC50. Type of series: cell-based, eastern equine encephalitis virus.
In series [2] the test system is VEEV INH9813.

In the case of `COc1ccc(N2C(=O)c3cc([N+](=O)[O-])ccc3N=C3C2N(C)CCN3C)cc1` (stereo not shown) [7a], in the series with VEEV TC83, the EC50 was determined as 41 nM.
For `COc1ccc(N2C(=O)c3cc(C#N)cc(-c4ccc(C)nc4)c3N=C3C2N(C)CCN3C)cc1F` (stereo not shown) [7o], the EC50 in the series with VEEV INH9813 [1] was in the range of 160 to 240 nM. For the same compound, the half-life in “Mouse plasma stability” was over 4.82 h.
In the case of `CN1CCN(C)C2C1=Nc1ccc([N+](=O)[O-])cc1C(=O)N2c1ccccc1` (stereo not shown) [7e], in the series with EEEV V105, the EC50 stood at 59 ± 10 nM.
For `COc1ccc(N2C(=O)c3cc([N+](=O)[O-])ccc3N=C3C2N(C)CCN3C)cc1F` (stereo not shown) [7b], the EC50 in the series with EEEV V105 is 27 ± 3 nM.
Take `COc1ccc(N2C(=O)c3cc(C#N)ccc3N=C3C2N(C)CCN3C)cc1` (stereo not shown) [7l]: the “loss in antiviral activity for EEEV” value in the series with EEEV V105 worked out at 75 fold. Also, in the series with VEEV INH9813 [2], the “loss in antiviral activity for VEEV” value is on record as 100 fold.
